The text below walks through data of patent US11066412B2, “Substituted pyrrolo[2,1-a]phthalazines and benzo[g]pyrrolo[2,1-a]phthalazines for the treatment of cancer” (Academia Sinica, priority 2017, dated 2021).

One data set concerns colon cancer HCT-116. Kind of data set: in vitro cytotoxicity, PrestoBlue assay. It counts as cell-based, human. The settings on record: Table 2. As for the experimental part: (§1) All representative compounds of Formulae (I-A) and (I-B) were first evaluated for their in vitro cytotoxicity to human lymphoblastic leukemia cell line (CCRF-CEM) and its vinblastine-resistant sub-cell line (CCRF-CEM/VBL) (see Table 1).
(§2) After a 72-hr incubation in various concentrations of the newly synthesized compounds, the cytotoxic effects of them to all cell lines were determined by the PrestoBlue®(Invitrogen) assay using a microplate spectrophotometer. Briefly, at the end of treatment, an aliquot of PrestoBlue® solution was added and then cells were incubated at 37° C. for 1-2 hr. The absorbance at 570 and 600 nm was measured with a microplate reader. […] The ICso is defined by the concentration required to inhibit tumor cell growth by 50%. Data represent the mean±STDEV of three to six independent experiments for each compound.

Data set [1] concerns non-small cell lung cancer H460. Kind of data set: in vitro cytotoxicity, PrestoBlue assay. It counts as cell-based, human. The settings on record: Table 2. As for the experimental part:
as §1, §2

Data set [2] concerns vinblastine-resistant sub-cell line (CCRF-CEM/VBL). In words: in vitro cytotoxicity, PrestoBlue assay. The data set is classed as cell-based, human. As for the experimental part:
as §1, §2

The subject of another data set is pancreatic cancer PacaS1. In words: in vitro cytotoxicity, PrestoBlue assay. It counts as cell-based, human. The settings on record: Table 2. As for the experimental part: as §1, §2
Data set [3] has as its system small cell lung cancer H526. In words: in vitro cytotoxicity, PrestoBlue assay. It counts as cell-based, human. The settings on record: read-out: IC50 H526.
Another data set relates to H526 cells. Kind of data set: single cell electrophoresis (comet) assay. The note with it: FIG. 2. It counts as cell-based. An excerpt:
The data is the average of 3 independent experiments.
To this purpose, cells were encapsulating in a low-melting-point agarose suspension on a microscope slide, then were lysed in neutral or alkaline (pH>13) condition, and electrophoresis of the suspended lysed cells. The term “comet” refers to the pattern of DNA migration through the electrophoresis gel, which often resembles a comet, and the intensity of the comet tail relative to the head reflects the number of DNA breaks.

The next data set relates to CD31. Kind of data set: immunohistochemical staining of tumor xenograft sections, blood vessels. It counts as in vivo, nude mice. The note with it: for blood vessel in tumors (anti-CD31 staining): compared to vehicle control, FIG. 15, panel A; for CD31 marker intensity compared to control: day 9, H526 tumors, FIG. 15, panel B. On the procedure: (§3) Tumor xenograft tissue sections on the slides were deparaffinized in xylene twice for 7 min each time. The slides were then rehydrated in graded ethanol, serially from 100% to 70%, followed by rinsing in dH2O. Antigen retrieval was performed using citrate buffer (0.01M, pH 6.0) with incubation in a cooker for 50 mins followed by ambient temperature cooling for 30 min. and then dH2O rinsing. Later slides were subjected to immunohistochemical (IHC) staining with primary antibodies (anti-rabbit CD31 antibody and anti-mouse γ-H2AX antibody) obtained from Abeam® following the manufacturer's instructions (Novolink Polymer Detection system, Leica Biosystems, Wetzlar, Germany).^11 After IHC processing, the slides were scanned digitally using the Panoramic 250 Flash II whole slide scanner and analyzed by 3DHISTECH Panoramic viewer software (3DHISTECH Ltd., Budapest, Hungary).
The density of blood vessels within the tumors was evaluated by immunofluorescence staining using anti-CD31 (a marker of endothelial cells) (FIG. 15, panel A). […] After IHC, slides were scanned by Panoramic 250 Flash II whole slide scanner. The expression of CD31 in tissue sections were determined from 15 different fields of 3 tumor sections and counts were averaged using 3DHISTECH Panoramic viewer software (3DHISTECH Ltd., Budapest, Hungary). […] However, on day 9, CD31 marker intensity was reduced to 4% in tumors treated with BO-2590L or vatalanib compared to control (FIG. 15, panel B). […] On day 9, CD31 marker intensity in cisplatin-treated tumor was 19% of control, which was less extent than BO-2590L or vatalanib.

The test system of a further data set is H146. Kind of data set: in vitro cytotoxicity to SCLC cells. It counts as cell-based, human. The note with it: Table 3. As for the experimental part:
as §2

The test system of the next data set is H211. In words: in vitro cytotoxicity to SCLC cells. The settings on record: Table 3. The data set is classed as cell-based, human. On the procedure: as §2
The next data set deals with H82. Kind of data set: in vitro cytotoxicity to SCLC cells. It counts as cell-based, human. The note with it: Table 3. On the procedure: as §2
For the next data set, the system named is H1417. In words: in vitro cytotoxicity to SCLC cells. The data set is classed as cell-based, human. The settings on record: Table 3. As for the experimental part: as §2
Data set [4] has as its system human lymphoblastic leukemia cell line (CCRF-CEM). In words: in vitro cytotoxicity, PrestoBlue assay. The settings on record: 72-hr incubation; mean ± STDEV of three to six experiments; read-out: IC50 CCRF-CEM. It counts as cell-based. On the procedure:
as §1, §2

A further data set deals with γ-H2AX. In words: immunohistochemical staining of tumor xenograft sections, DNA damage marker. The data set is classed as in vivo, nude mice. The note with it: for γ-H2AX in tumors: FIG. 16, panel A; for γ-H2AX signals, quantitative analysis: FIG. 16, panel B. As for the experimental part:
as §3, with “3[…]” for “3DHISTECH”, “(3[…]” for “(3DHISTECH”
As BO-2590L is a DNA damaging agent, we thus investigated the effect of BO-2590L on the level of a DNA damage marker, γ-H2AX, via the use of immunohistochemical staining.

Data set [5] has as its system human SCLC H526 xenografts. Kind of data set: tumor growth in xenograft-bearing nude mice. The settings on record: micelle formulation (Kolliphor/TWEEN 80/PEG400/ethanol/D5W); BO-2768 at 20 mg/kg twice daily; FIG. 12, panel A. It counts as in vivo. As for the experimental part: Athymic nude mice bearing the nu/nu gene were obtained from the National Laboratory Animal Center (Taipei, Taiwan). Male nude mice (6 weeks or older weighing 20-24 g or more) were used for all human tumor xenografts. The tested compounds were intravenously administered through tail vein. Tumor volume was determined by measuring the length x width x height (or width) with calipers. […] For tumor-bearing nude mice during the course of the experiment, the % body weight changes refer to: (the total weight on reading day/the total weight on day treatment started)×100.
In all experiments, the tumor cells were subcutaneously implanted in nude mice, and the BO-2590L was administered via tail vein when the tumor size reaching approximate 100 mm^3. […]
To confirm the therapeutic activity of BO-2590L, comparative experiments carried out by known chemotherapeutic agents, such as vatanalib and cisplatin, were also performed. Briefly, the H526 xenograft-bearing mice were divided into 4 groups which were treated with vehicle, BO-2590L (10 mg/kg, QD×9), vatalanib (100 mg/kg, QD×9), and cisplatin (4 mg/kg, Q2D×3), respectively. Results are illustrated in FIG. 11.
Results are illustrated in FIGS. 12 and 13.

A short description of data set [6]: body weight changes of xenograft-bearing nude mice. It counts as in vivo. The settings on record: H526 xenograft mice. As for the experimental part: Athymic nude mice bearing the nu/nu gene were obtained from the National Laboratory Animal Center (Taipei, Taiwan). Male nude mice (6 weeks or older weighing 20-24 g or more) were used for all human tumor xenografts. The tested compounds were intravenously administered through tail vein. Tumor volume was determined by measuring the length x width x height (or width) with calipers. The vehicle used for the tested compounds was normal saline (0.9% NaCl isotonic solution). For tumor-bearing nude mice during the course of the experiment, the % body weight changes refer to: (the total weight on reading day/the total weight on day treatment started)×100.

In a further data set the test system is EA.hy926 cells. Kind of data set: Tube-Formation Assay. The note with it: 24 hr pre-treatment, 48-hr incubation on matrigel; FIG. 4. The data set is classed as cell-based. As for the experimental part:
Angiogenesis is the process of generating new blood vessels derived as extensions from the existing vasculature. Performance of vascular behavior or monitoring tube formation can determine whether the compound is capable of interrupting angiogenesis. In this example, whether the compound of formula (I) interrupted angiogenesis was investigated using Tube-Formation Assay.
Briefly, EA.hy926 cells were treated with various concentrations of BO-2590 for 24 hr. After that, cells (5×10^5 cells/well) were suspended in 100 μl medium containing 1% FCS and subsequently seeded onto 96-well plate pre-coated with matrigel 1 h at 37° C. After a 48-hr incubation, tube-formation ability was examined under a phase microscope.

Molecules are shown by their SMILES. Read-outs that look alike come from different tables or passages of the source.

As for `N.N.[Cl][Pt][Cl]` [Cisplatin, reference compound], the IC50 came to 9.17 ± 0.67 µM in the data set on colon cancer HCT-116; 5.11 ± 0.22 µM in [1]; 8.88 ± 1.86 µM in data set [2] (72-hr incubation, mean ± STDEV of three to six experiments, read-out: IC50 CEM/VBL); 0.73 ± 0.07 µM in data set [3] (Table 2); 1.75 ± 0.71 µM in [3] (Table 3); 10.2 ± 2.99 µM with H146. Moreover, the IC50 in the data set with H211 amounted to 0.78 ± 0.46 µM; in the data set on H82, 1.75 ± 0.39 µM; in the data set with H1417 it was 40.8 ± 5.97 µM; in [4] it was 16.5 ± 0.9 µM. The “resistance factor (IC50 CEM/VBL vs IC50 of the parent cell line)” value in [2] (number in brackets) was 0.54 ×. Moreover, the “IC50 Paca SI” value in the data set with pancreatic cancer PacaS1 was 27.04 ± 0.98 µM. In the data set on H526 cells, the “DNA damage (comet tail)” value is “inducing DNA breaks in a dose dependent manner”. In addition, the “blood vessel in tumors (anti-CD31 staining)” value in the data set on CD31 is “significantly reduced blood vessel”. The “CD31 marker intensity compared to control” value in the data set on CD31 is recorded as 19%. Also, the γ-H2AX in tumors entry in the data set on γ-H2AX was “remarkably increased in γ-H2AX”. Also, in the data set on γ-H2AX, the “γ-H2AX signals, quantitative analysis” value was “time-dependently increased in γ-H2AX signals”. Also, the tumor size result in data set [5] is “slowly increased in size”. Further, in [6] (micelle formulation, FIG. 12, panel B), the “deleterious effects on the bodyweight of the test animals” value was “none”. Besides, in data set [6] (BO-2590L 10 mg/kg for consecutive 9 days, cisplatin 4 mg/Kg, FIG. 11, panel B), the body weight result is listed as “severe body weight lost”.

For `Clc1ccc(Nc2nnc(Cc3ccncc3)c3ccccc23)cc1` [vatalanib], the tube formation entry in the data set on EA.hy926 cells was “suppressed tube formation, but at much higher concentrations”. Besides, in the data set on CD31, the “blood vessel in tumors (anti-CD31 staining)” value is listed as “significantly reduced blood vessel” and the “CD31 marker intensity compared to control” value is 4%. Besides, in the data set with γ-H2AX, the γ-H2AX in tumors entry is “much less level” and the “γ-H2AX signals, quantitative analysis” value is listed as “moderate level of γ-H2AX”.
